Assays:
angiotensin II receptor = target: T1, angiotensin II receptor (Rattus norvegicus, UniProt P25095); test: Test on the angiotensin II receptor (displacement of I^125 angiotensin II on rat liver membrane preparation); type: binding; conditions: 25° C., 150 minutes, pH 7.4, read-out: IC50 (50% inhibiting concentration, displacement of specific radioactivity fixed on the receptor)
T1 construct: A fresh membrane preparation obtained from the liver of a rat was used; from tissue; host or cells: rat liver membranes
T1 sequence (P25095 1-359): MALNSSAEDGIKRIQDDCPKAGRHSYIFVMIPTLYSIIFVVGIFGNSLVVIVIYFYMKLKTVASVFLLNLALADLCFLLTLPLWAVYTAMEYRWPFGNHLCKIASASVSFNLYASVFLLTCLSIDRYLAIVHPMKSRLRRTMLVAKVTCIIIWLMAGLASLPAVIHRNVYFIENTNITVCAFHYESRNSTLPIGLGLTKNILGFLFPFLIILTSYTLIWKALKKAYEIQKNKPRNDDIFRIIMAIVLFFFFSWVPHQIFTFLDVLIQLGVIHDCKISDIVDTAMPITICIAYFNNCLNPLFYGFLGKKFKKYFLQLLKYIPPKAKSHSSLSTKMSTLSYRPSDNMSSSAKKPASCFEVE
Description: A fresh membrane preparation obtained from the liver of a rat was used and the tissue was ground up in a polytron in a Tris 50 mM buffer pH 7.4. The grinding was followed by 3 centrifugations at 30,000 g for 15 minutes and the deposits were taken up in between in the Tris buffer pH 7.4. The last deposits were suspended in an incubation buffer (Tris 20 mM, NaCl 135 mM, KCl 10 mM, glucose 5 mM, MgCl2 10 mM PMSF 0.3 mM, bacitracin 0.1 mM, BSA 0.2%) The aliquoted fractions of 2 ml were divided into hemolysis tubes and I^125 angiotensin II (25,000 DPM per tube) and the product to be studied were added. The product was first tested at 3×10^-5 M three times. When the tested product displaced by more than 50% the radioactivity linked specifically to the receptor, it was tested again according to a range of 7 concentrations to determine the concentration which inhibited by 50% the radioactivity linked specificaly to the receptor. In this way, the 50% inhibiting concentration was determined.
The non-specific bond was determined by addition of the product of Example 94 of European Patent No. 0,253,310, at 10^-5 M (three times). The medium was incubated at 25° C. for 150 minutes, put in a water bath at 0° C. for 5 minutes, filtered under vacuum, rinsed with Tris buffer pH 7.4 and the radioactivity was counted in the presence of scintillating Triton. The results were expressed directly as the 50% inhibiting concentration (IC50), that is as the concentration of studied product, expressed in nM, necessary to displace 50% of the specific radioactivity fixed on the receptor studied.

[1] = tested on: angiotensin II on the isolated portal vein; test: Antagonistic activity of angiotensin II on the isolated portal vein; type: cell-based, male Wistar rats; conditions: isolated rat portal vein, angiotensin II 3.10^-8 M, compound 15 minutes before stimulation, 37° C.; read-out: IC50 (concentration which produced a 50% inhibition of the response to angiotensin)
Description: The portal vein of male Wistar rats weighing about 350 g (IFFA Credo France) was removed after cervical dislocation and placed rapidly in a physiological solution (see below) at ambient temperature. A ring of about 1 mm was mounted in a bath having an isolated organ containing 20 ml of the following physiological solution (composition in mM: NaCl 118.3-KCl […]-MgSO4 1.2-KH2 PO4 1.2-NaHCO3 25-glucose 11.1-CaCl2 2.5). The medium was maintained at 37° C. and oxygenated with an O2 (95%), CO2 (5%) mixture. The initial pressure imposed was 1 g, the rings were left at rest for 60 to 90 minutes. To avoid spontaneous contractions, verapamil was added to the incubation bath (1.10^-6 M).
At the end of the rest period, angiotensin II (Ciba hypertensin) 3.10^-8 M was added to the incubation bath and left in contact with the preparation for 1 minute. This operation was repeated every 30 minutes with the tissue being washed 3 or 4 times between two stimulations by angiotensin. The compound to be studied was introduced into the bath 15 minutes before a new stimulation by angiotensin. From increasing concentrations of the molecule being applied, an IC50 (concentration which produced a 50% inhibition of the response to angiotensin) can be calculated, this being expressed in nanomoles.

Structure (SMILES) | IC50 (angiotensin II receptor) [µM] | IC50 [1] [µM]
CCCCc1nc2ccc(C(=O)O)cc2n1Cc1ccc(C(=O)O)cc1 [Example 2, 2-Butyl-1-((4-carboxyphenyl)-methyl)-1H-benzimidazol-6-carboxylic acid] | 2.35 | 3.4
CCCCc1nc2ccccc2n1Cc1ccc(C(=O)O)cc1 [Example 5, 4-((2-butyl-1H-benzimidazol-1-yl)-methyl) benzoic acid] | 1.44 | 3.6
CCCCc1nc2ccccc2n1Cc1ccc(C(=O)Nc2cccc3[nH]ccc23)cc1 [Example 6, 4-((2-butyl-1H-benzimidazol-1-yl)-methyl)-N-(1H-indol-4-yl) benzamide] | 3.46 | 
CCCCc1nc2cc3ccccc3cc2n1Cc1ccc(C(=O)O)cc1 [Example 10, 4-((2-butyl-1H-naphth(2,3-d)imidazol-1-yl)-methyl) benzoic acid] | 2.27 | 3.28
CCCCc1nc2cc(C)c(C)cc2n1Cc1ccc(C(=O)O)cc1 [Example 15, 4-((2-butyl-5,6-dimethyl-1H-benzimidazol-1-yl)-methyl) benzoic acid] | 3.61 | 
CCCCc1nc2ccncc2n1Cc1ccc(C(=O)O)cc1 [Example 20, 4-((2-butyl-3H-imidazo(4,5-c)pyridin-3-yl)-methyl) benzoic acid] | 2.72 | 
CCCCc1nc2cccnc2n1Cc1ccc(C(=O)O)cc1 [Example 25] |  | 0.83
CCCCc1nc2ncccc2n1Cc1ccc(-c2ccccc2C(=O)O)cc1 [Example 27, 4'-((2-butyl-1H-imidazo-(4,5-b)-pyridin-1-yl)-methyl)-(1,1'-biphenyl)-2-carboxylic acid] | 0.089 | 
CCCCc1nc2cscc2n1Cc1ccc(-c2ccccc2C(=O)O)cc1 [Example 34, 4'-((2-butyl-1H-thieno-(3,4-d)-imidazol-1-yl)-methyl)-(1,1'-biphenyl)-2-carboxylic acid] | 0.789 | 

— US5389634A, “Imidazole derivatives having angiotensin II receptor antagonistic activity” (Roussel-Uclaf, priority 1990, dated 1995)
